Experimental data published in ChEMBL document CHEMBL4000234, “Synthesis and antiviral evaluation of novel heteroarylpyrimidines analogs as HBV capsid effectors” (Bioorg Med Chem Lett, 2017).

Tests used:
HepG2 = assay: (§1) Cytotoxicity against human HepG2 cells assessed as growth inhibition by CellTiter 96 non-radioactive cell proliferation colorimetric assay; format: cell-based; settings: hepg2
Hepatitis B virus = assay: Antiviral activity against HBV infected in human HepAD38 cells assessed as inhibition of DNA replication after 5 days by RT-PCR method; format: functional, cell-based; settings: HePAD38, 120 h
CCRF-CEM = assay: (§2) Cytotoxicity against human CEM cells assessed as growth inhibition by CellTiter 96 non-radioactive cell proliferation colorimetric assay; format: cell-based; settings: ccrf-cem
PBMC = assay: (§3) Cytotoxicity against human PBMC assessed as growth inhibition by CellTiter 96 non-radioactive cell proliferation colorimetric assay; format: cell-based
Vero = assay: (§4) Cytotoxicity against African green monkey Vero cells assessed as growth inhibition by CellTiter 96 non-radioactive cell proliferation colorimetric assay; format: cell-based; settings: chlorocebus sabaeus, vero
[1] = as §1; format: cell-based; settings: HepG2 cells
[2] = as §2; format: cell-based, CCRF-CEM; settings: CEM cells (CCRF-CEM)
[3] = as §3; format: cell-based
[4] = as §4; format: cell-based; settings: chlorocebus sabaeus, Vero cells

CC1(C)CC(=O)c2c(Cc3ccc(F)cc3Cl)nc(-c3ccncc3)nc2C1
CC50 (HepG2): ≥ 100 µM
EC50 (Hepatitis B virus): > 10 µM
CC50 (CCRF-CEM): ≥ 100 µM
CC50 (PBMC): > 100 µM
CC50 (Vero): 10 µM

CCCC[n+]1ccn(CC2=C(C(=O)OC)C(c3ccc(F)cc3Cl)N=C(c3ccccn3)N2)c1 (stereo unspecified)
CC50 (HepG2): 14 µM
EC50 (Hepatitis B virus): > 10 µM
CC50 (CCRF-CEM): 3 µM
CC50 (PBMC): 20 µM
CC50 (Vero): > 100 µM

CC1=C(C(=O)NS(=O)(=O)N(C)C)C(c2ccc(F)cc2Cl)N=C(c2ccccn2)N1 (stereo unspecified)
CC50 (HepG2): > 100 µM
EC50 (Hepatitis B virus): > 10 µM
CC50 (CCRF-CEM): > 100 µM
CC50 (PBMC): > 100 µM
CC50 (Vero): ≥ 100 µM

CC1=C(I)C(c2ccc(F)cc2Br)N=C(c2nccs2)N1 (stereo unspecified)
CC50 (HepG2): > 100 µM
EC50 (Hepatitis B virus): 7.1 µM
CC50 (CCRF-CEM): 33 µM
CC50 (PBMC): 80 µM
CC50 (Vero): > 100 µM

CC1=C(C(=O)SC(C)C)C(c2ccc(F)cc2Cl)N=C(c2ccccn2)N1 (stereo unspecified)
CC50 (HepG2): > 100 µM
EC50 (Hepatitis B virus): > 10 µM
CC50 (CCRF-CEM): 13 µM
CC50 (PBMC): 31 µM
CC50 (Vero): 40 µM

COC(=O)C1=C(CN=[N+]=[N-])NC(c2ccccn2)=NC1c1ccc(F)cc1Cl (stereo unspecified)
CC50 (HepG2): > 100 µM
EC50 (Hepatitis B virus): 5.3 µM
CC50 (CCRF-CEM): > 100 µM
CC50 (PBMC): > 100 µM
CC50 (Vero): 56 µM

CC1(C)CC(=O)C2=C(C1)NC(c1cccnc1)=NC2c1ccc(F)cc1Cl (racemic)
CC50 (HepG2): > 100 µM
EC50 (Hepatitis B virus): > 10 µM
CC50 (CCRF-CEM): > 100 µM
CC50 (PBMC): > 100 µM
CC50 (Vero): > 100 µM

CC(=O)NC1=C(C)NC(c2ccccn2)=NC1c1ccc(F)cc1Cl (stereo unspecified)
CC50 (HepG2): 80 µM
EC50 (Hepatitis B virus): > 10 µM
CC50 (CCRF-CEM): > 100 µM
CC50 (PBMC): > 100 µM
CC50 (Vero): > 100 µM

CC(=O)NC1=C(CN2CCOCC2)NC(c2ccccn2)=NC1c1ccc(F)cc1Cl (stereo unspecified)
CC50 (HepG2): > 100 µM
EC50 (Hepatitis B virus): > 10 µM
CC50 (CCRF-CEM): 69 µM
CC50 (PBMC): 28 µM
CC50 (Vero): 18 µM

COC(=O)c1c(C)nc(-c2ccccn2)nc1Cc1ccccc1
CC50 (HepG2): 41 µM
EC50 (Hepatitis B virus): > 10 µM
CC50 (CCRF-CEM): 4 µM
CC50 (PBMC): 67 µM
CC50 (Vero): 61 µM

Fc1ccc(C2N=C(c3ccccn3)NC(CN3CCOCC3)=C2I)c(Cl)c1 (stereo unspecified)
CC50 (HepG2): > 100 µM
EC50 (Hepatitis B virus): 4 µM
CC50 (CCRF-CEM): 11 µM
CC50 (PBMC): > 100 µM
CC50 (Vero): 45 µM

CC1(C)CC(=O)c2c(Cc3ccc(F)cc3Cl)nc(-c3cccnc3)nc2C1
CC50 (HepG2): > 100 µM
EC50 (Hepatitis B virus): > 10 µM
CC50 (CCRF-CEM): 86 µM
CC50 (PBMC): > 100 µM
CC50 (Vero): ≥ 100 µM

CC1=C(Cl)C(c2ccc(F)cc2Cl)N=C(c2ccccn2)N1 (stereo unspecified)
CC50 (HepG2): 98 µM
EC50 (Hepatitis B virus): > 10 µM
CC50 (CCRF-CEM): 44 µM
CC50 (PBMC): > 100 µM
CC50 (Vero): 13 µM

CC1(C)CC(=O)c2c(Cc3ccc(F)cc3Cl)nc(-c3ccccn3)nc2C1
CC50 (HepG2): 42 µM
EC50 (Hepatitis B virus): > 10 µM
CC50 (CCRF-CEM): 9 µM
CC50 (PBMC): 69 µM
CC50 (Vero): 29 µM

COC(=O)c1c(Cc2ccc(F)cc2Cl)nc(-c2ccccn2)nc1CN1CCOCC1
CC50 (HepG2): 69 µM
EC50 (Hepatitis B virus): > 10 µM
CC50 (CCRF-CEM): 11 µM
CC50 (PBMC): 34 µM
CC50 (Vero): 71 µM

COC(=O)c1c(CSc2ccccc2)nc(-c2ccccn2)nc1Cc1ccccc1
CC50 (HepG2): > 100 µM
EC50 (Hepatitis B virus): > 10 µM
CC50 (CCRF-CEM): 9 µM
CC50 (PBMC): 65 µM
CC50 (Vero): 12 µM

COC(=O)C1=C(CN2CCN(C)CC2)NC(c2ccccn2)=NC1Cc1ccccc1 (stereo unspecified)
CC50 (HepG2): 14 µM
EC50 (Hepatitis B virus): > 10 µM
CC50 (CCRF-CEM): 17 µM
CC50 (PBMC): > 100 µM
CC50 (Vero): 76 µM

COC(=O)C1=C(CSc2ccccc2)NC(c2ccccn2)=NC1Cc1ccccc1 (stereo unspecified)
CC50 (HepG2): 96 µM
EC50 (Hepatitis B virus): > 10 µM
CC50 (CCRF-CEM): 5 µM
CC50 (PBMC): > 100 µM
CC50 (Vero): > 100 µM

Nc1ccn([C@@H]2CS[C@H](CO)O2)c(=O)n1 [LAMIVUDINE]
CC50 [1]: 10 to 100 µM
EC50 (Hepatitis B virus): 0.04 µM
CC50 [2]: > 100 µM
CC50 [3]: > 100 µM
CC50 [4]: > 100 µM

COC(=O)c1c(Cc2ccccc2)nc(-c2ccccn2)nc1CN1CCN(C)CC1
CC50 (HepG2): > 100 µM
EC50 (Hepatitis B virus): > 10 µM
CC50 (CCRF-CEM): 86 µM
CC50 (PBMC): > 100 µM
CC50 (Vero): > 100 µM

Fc1ccc(C2N=C(c3nccs3)NC(CN3CCOCC3)=C2I)c(Br)c1 (stereo unspecified)
CC50 (HepG2): > 100 µM
EC50 (Hepatitis B virus): 5.7 µM
CC50 (CCRF-CEM): 33 µM
CC50 (PBMC): 75 µM
CC50 (Vero): > 100 µM

CC1=C(C(=O)OCC(F)(F)F)C(c2ccc(F)cc2Cl)N=C(c2ccccn2)N1 (stereo unspecified)
CC50 (HepG2): > 100 µM
EC50 (Hepatitis B virus): > 10 µM
CC50 (CCRF-CEM): 4 µM
CC50 (PBMC): > 100 µM
CC50 (Vero): 65 µM

CCOC(=O)C1=C(CN2CCOCC2)NC(c2nccs2)=NC1c1ccc(F)cc1Br (racemic)
EC50 (Hepatitis B virus): 0.3 µM

CC1=C(I)C(c2ccc(F)cc2Cl)N=C(c2ccccn2)N1 (stereo unspecified)
CC50 (HepG2): > 100 µM
EC50 (Hepatitis B virus): 4.1 µM
CC50 (CCRF-CEM): 74 µM
CC50 (PBMC): 80 µM
CC50 (Vero): 29 µM

COC(=O)C1=C(Cn2cc[n+](C)c2)NC(c2ccccn2)=NC1c1ccc(F)cc1Cl (stereo unspecified)
CC50 (HepG2): > 100 µM
EC50 (Hepatitis B virus): > 10 µM
CC50 (CCRF-CEM): 23 µM
CC50 (PBMC): 44 µM
CC50 (Vero): > 100 µM

COC(=O)C1=C(CN2CCOCC2)NC(c2ccccn2)=NC1c1ccc(F)cc1Cl (racemic)
CC50 (HepG2): > 100 µM
EC50 (Hepatitis B virus): 0.45 to 0.5 µM
CC50 (CCRF-CEM): > 100 µM
CC50 (PBMC): > 100 µM
CC50 (Vero): > 100 µM

CC1(C)CC(=O)c2c(Cc3ccccc3)nc(-c3ccccn3)nc2C1
CC50 (HepG2): 47 µM
EC50 (Hepatitis B virus): > 10 µM
CC50 (CCRF-CEM): 21 µM
CC50 (PBMC): 43 µM
CC50 (Vero): 53 µM

COC(=O)c1c(Cc2ccccc2)nc(-c2ccccn2)nc1CN1CCOCC1
CC50 (HepG2): > 100 µM
EC50 (Hepatitis B virus): > 10 µM
CC50 (CCRF-CEM): 2 µM
CC50 (PBMC): 81 µM
CC50 (Vero): 59 µM

CCS(=O)(=O)CC1=C(C(=O)OC)C(c2ccc(F)cc2Cl)N=C(c2ccccn2)N1 (stereo unspecified)
CC50 (HepG2): > 100 µM
EC50 (Hepatitis B virus): > 10 µM
CC50 (CCRF-CEM): 39 µM
CC50 (PBMC): > 100 µM
CC50 (Vero): > 100 µM

COCCOCc1nc(-c2ccccn2)nc(Cc2ccccc2)c1C(=O)OC
CC50 (HepG2): ≥ 100 µM
EC50 (Hepatitis B virus): > 10 µM
CC50 (CCRF-CEM): 55 µM
CC50 (PBMC): 99 µM
CC50 (Vero): 87 µM

COC(=O)C1=C(C)NC(c2ccccn2)=NC1Cc1ccccc1 (stereo unspecified)
CC50 (HepG2): > 100 µM
EC50 (Hepatitis B virus): > 10 µM
CC50 (CCRF-CEM): 61 µM
CC50 (PBMC): 52 µM
CC50 (Vero): > 100 µM

COC(=O)C1=C(CS(=O)(=O)Cc2ccc(C)cc2)NC(c2ccccn2)=NC1c1ccc(F)cc1Cl (stereo unspecified)
CC50 (HepG2): > 100 µM
EC50 (Hepatitis B virus): > 10 µM
CC50 (CCRF-CEM): 47 µM
CC50 (PBMC): 67 µM
CC50 (Vero): ≥ 100 µM

CC1=C(Br)C(c2ccc(F)cc2Cl)N=C(c2ccccn2)N1 (stereo unspecified)
CC50 (HepG2): 79 µM
EC50 (Hepatitis B virus): 5.2 µM
CC50 (CCRF-CEM): 23 µM
CC50 (PBMC): > 100 µM
CC50 (Vero): 16 µM

CCOP(=O)(CC1=C(C(=O)OC)C(c2ccc(F)cc2Cl)N=C(c2ccccn2)N1)OCC (stereo unspecified)
CC50 (HepG2): > 100 µM
EC50 (Hepatitis B virus): > 10 µM
CC50 (CCRF-CEM): 15 µM
CC50 (PBMC): 65 µM
CC50 (Vero): 43 µM
